Source: ChEMBL document CHEMBL3612052, “Identification of amino acid appended acridines as potential leads to anti-cancer drugs” (Bioorg Med Chem Lett, 2015)
Calls of active or inactive are those of the source. The calls are words filed in the database; no cut-off is given here.

What was measured:
[1] = test system: C6; experiment: Antiproliferative activity against rat C6 cells assessed as appearance of differentiated morphology with long stellate process at 20 uM by alpha-tubulin immunostaining-based phase contrast microscopic analysis; assay type: functional, cell-based
[2] = test system: C6; experiment: Antiproliferative activity against rat C6 cells assessed as appearance of small cell body at 10 to 20 uM by DAPI staining-based confocal microscopic analysis; assay type: functional
[3] = test system: C6; experiment: Cell cycle arrest in rat C6 cells assessed as decrease in cell number in S phase at 10 uM after 36 hrs by propidium iodide staining-based flow cytometric analysis relative to control; assay type: functional
[4] = test system: C6; experiment: Cell cycle arrest in rat C6 cells assessed as accumulation at G0/G1 phase at 10 uM after 36 hrs by propidium iodide staining-based flow cytometric analysis relative to control; assay type: functional
[5] = test system: C6; experiment: Antiproliferative activity against rat C6 cells assessed as reduction in cell number at 20 uM by alpha-tubulin immunostaining-based phase contrast microscopic analysis; assay type: functional
[6] = test system: C6; experiment: Cell cycle arrest in rat C6 cells assessed as accumulation at G0/G1 phase at 10 uM after 36 hrs by propidium iodide staining-based flow cytometric analysis; assay type: functional
[7] = test system: C6; experiment: Antiproliferative activity against rat C6 cells assessed as appearance of differentiated morphology with long stellate process at 10 to 20 uM by DAPI staining-based confocal microscopic analysis; assay type: functional, cell-based
[8] = test system: C6; experiment: Induction of senescence in rat C6 cells assessed as upregulation of HSP70 expression at 10 ug/ml by DAPI staining-based confocal microscopic analysis; assay type: functional, cell-based
[9] = test system: C6; experiment: Antiproliferative activity against rat C6 cells assessed as appearance of small cell body at 20 uM by alpha-tubulin immunostaining-based phase contrast microscopic analysis; assay type: functional
[10] = test system: C6; experiment: Induction of senescence in rat C6 cells assessed as upregulation of mortalin expression in nucleus by DAPI staining-based confocal microscopic analysis; assay type: functional, cell-based
[11] = test system: C6; experiment: Antiproliferative activity against rat C6 cells after 72 hrs by MTT assay; assay type: functional, cell-based; settings: C6, 72 h
[12] = test system: C6; experiment: Antiproliferative activity against rat C6 cells assessed as reduction in cell number at 10 to 20 uM by DAPI staining-based confocal microscopic analysis; assay type: functional
[13] = test system: C6; experiment: Induction of senescence in rat C6 cells assessed as translocation of mortalin from perinuclear region to pancytoplasmic region by DAPI staining-based confocal microscopic analysis; assay type: functional, cell-based
[14] = test system: C6; experiment: Cell cycle arrest in rat C6 cells assessed as decrease in cell number in G2/M phase at 10 uM after 36 hrs by propidium iodide staining-based flow cytometric analysis relative to control; assay type: functional
[15] = test system: C6; experiment: Antiproliferative activity against rat C6 cells at 10 uM by phase contrast microscopic analysis relative to control; assay type: functional, cell-based
[16] = test system: C6; experiment: Downregulation of GFAP expression in rat C6 cells by DAPI staining-based confocal microscopic analysis; assay type: functional, cell-based

Structure (SMILES)	Activity [1]	Activity [2]	Activity [3]	Activity [4]	Activity [5]	Activity [6]	Activity [7]	Activity [8]	Activity [9]	Activity [10]	IC50 [11] [µM]	Activity [12]	Activity [13]	Activity [14]	Activity [15]	Activity [16]
COC(=O)CNC(=O)[C@H](Cc1ccc(O)cc1)NC(=O)c1cccc2c(=O)c3ccccc3[nH]c12	Active	Active	Active	Active	Active	Active	Active	Active	Active	Active	14	Active	Active	Active	Active	Active
O=C(O)CNC(=O)[C@@H]1CCCN1C(=O)[C@H](Cc1ccc(O)cc1)NC(=O)c1cccc2c(=O)c3ccccc3[nH]c12	Active	Active	Active	Active	Active	Active	Active	Active	Active	Active	14	Active	Active	Active	Active	Active
O=C(N[C@@H](Cc1ccc(O)cc1)C(=O)NCC(=O)N1CCC[C@H]1C(=O)O)c1cccc2c(=O)c3ccccc3[nH]c12	Active	Active	Active	Active	Active	Active	Active	Active	Active	Active	14	Active	Active	Active	Active	Active
COC(=O)[C@@H](NC(=O)c1cccc2c(=O)c3ccccc3[nH]c12)C(C)C						Active					14					
O=C(N[C@@H](Cc1ccc(O)cc1)C(=O)O)c1cccc2c(=O)c3ccccc3[nH]c12						Active					14					
COC(=O)[C@H](Cc1ccc(O)cc1)NC(=O)c1cccc2c(=O)c3ccccc3[nH]c12						Active					14					
